Experiment [1] concerns HRV-4. Briefly: Time-of-addition assay, HRV-4 in MRC5 cells. The experiment is classed as cell-based. The conditions noted are these: Human rhinovirus sp. Here is the method:
The time-of-addition effects of all compounds on HRV-4 were examined according to the method of Choi et al.. In brief, monolayers of MRC5 cells were seeded onto a 96-well culture plate as stated previously. After washing with PBS, 100 μg/mL PA, 20 μg/mL PGG, and 100 μg/mL ribavirin were separately added onto the cells at either before (–1 h), during (0 h), or after (1, 2, 3, 4, 6, 8, 12, 16, 20, and 24 h) HRV-4 infection at 37°C. After 2 days, MTT test and antiviral activity were carried out as stated previously.

The test system of a further experiment is IFN-β. Briefly: IFN-β mRNA expression, qRT-PCR in MRC5. The experiment is classed as cell-based, human. The conditions noted are these: MRC5, 2 days after HRV-2 or HRV-4 infection; 100 μg/mL PA, 20 μg/mL PGG. Here is the method: (§1) To evaluate the level of gene expression, real-time qRT-PCR with SYBR Green dye was carried out. HRV-2 or HRV-4 infected and noninfected cultures of MRC5 monolayers grown in 25 cm^2 cell culture flasks (Corning, NY) were treated with 100 μg/mL PA or 20 μg/mL PGG. After incubation at 37°C and 5% CO2 for 2 days, total RNA was extracted from the culture cells using the RNeasy Plus Mini Kit (Qiagen, Hilden, Germany) according to the manufacturer’s instructions. Contaminated genomic DNA was removed using RQ1 RNase-free DNase (Promega, Madison, WI). Complementary DNA (cDNA) was synthesized using 1 μg total RNA through a reverse transcription reaction using the SuperScript First-Strand Synthesis Kit (Invitrogen, Carlsbad, CA). […] The PCR conditions were as follows: 50°C for 2 min, 95°C for 10 min, and then 50 cycles of 95°C for 15 s and either 60°C [β2-microglobulin (B2M), interleukin (IL)-6, IL-8, LDLR, ICAM-1, HRV-2, and HRV-4] or 58°C (B2M and IL-1β) or 55°C [B2M, Toll-like receptor 3 (TLR3), tumor necrosis factor (TNF), and interferon beta (IFNβ)] for 30 s. mRNA expression level of target gene was normalized to mRNA expression level for the housekeeping gene B2M and analyzed by the 2^–ΔΔCT method using StepOne Software v2.1 and DataAssist Software (Applied Biosystems). […]
For orientation: Real-time PCR tracks product formation cycle by cycle.

In experiment [2] the test system is HRV-4. Briefly: Real-time qRT-PCR of HRV-4 RNA replication in MRC5 cells. The note with it: MRC5, 2 days after infection; 100 μg/mL PA, 20 μg/mL PGG; vs untreated cultures. The experiment is classed as cell-based, human rhinovirus. Here is the method: as §1
For another experiment, the system named is TNF. Nature of the experiment: TNF mRNA expression, qRT-PCR in MRC5. The conditions noted are these: MRC5, 2 days; 100 μg/mL PA, 20 μg/mL PGG; vs untreated cells. The experiment is classed as cell-based, human. As to the method:
as §1

A further experiment has as its system IL-6. Briefly: IL-6 mRNA expression, qRT-PCR in MRC5. The experiment is classed as cell-based, human. The conditions noted are these: MRC5, 2 days after HRV-2 or HRV-4 infection; 100 μg/mL PA, 20 μg/mL PGG. As to the method: as §1
The subject of another experiment is LDLR. Nature of the experiment: LDLR mRNA expression, qRT-PCR in MRC5. The experiment is classed as cell-based, human. The note with it: MRC5, 2 days after HRV-2 or HRV-4 infection; 100 μg/mL PA, 20 μg/mL PGG. Here is the method: as §1, with “WI).” for “WI). Complementary DNA (cDNA) was synthesized using 1 μg total RNA through a reverse transcription reaction using the SuperScript First-Strand Synthesis Kit (Invitrogen, Carlsbad, CA).”
The expressions of ICAM-1 and LDLR were examined using real-time qRT-PCR and Western blot. […] The concentrations of ICAM-1 in the test samples were determined from OD values using standard curve of each assay.

The mark [3] stands for this setting: HRV4, 0 h, 100 μg/mL PA, 20 μg/mL PGG, 100 μg/mL ribavirin, read-out: inhibition of HRV-4 infection, added at virus inoculation (0 h).
Where [4] appears, read: HRV4, read-out: inhibition of HRV-4 infection, added prior (–1 h) or post (1–24 h) infection, 100 μg/mL PA, 20 μg/mL PGG.

This is an account of results in PMC4393083, “Antiviral Activity and Possible Mechanism of Action of Constituents Identified in Paeonia lactiflora Root toward Human Rhinoviruses” (PLoS ONE, 2015).

The structures appear in SMILES notation. Read-outs that look alike come from different tables or passages of the source.

With `COc1ccc(C(C)=O)c(O)c1` [PA, paeonol], the inhibition at 100 µg/mL in the experiment on HRV-4 [1] (setting [3]) was 57.2%; in the experiment with HRV-4 [1] (setting [4]), no more than 40%. The “effect on HRV-induced IFN-β mRNA expression” value in the experiment on IFN-β was “meaningfully inhibited”. The “reduction of HRV-4 RNA replication level” value in the experiment on HRV-4 [2] is given as 16.3 fold. Further, the “effect on TNF mRNA expression” value in the experiment with TNF is given as “did not remarkably reduce”. Besides, in the experiment on IL-6, the “effect on HRV-induced IL-6 mRNA expression” value is “significantly reduced”. The “effect on LDLR mRNA expression” value in the experiment on LDLR is recorded as “decreased”.
Turning to `O=C(OC[C@H]1O[C@@H](OC(=O)c2cc(O)c(O)c(O)c2)[C@H](OC(=O)c2cc(O)c(O)c(O)c2)[C@@H](OC(=O)c2cc(O)c(O)c(O)c2)[C@@H]1OC(=O)c1cc(O)c(O)c(O)c1)c1cc(O)c(O)c(O)c1` [PGG, 1,2,3,4,6-penta-O-galloyl-β-D-glucopyranose], the inhibition at 20 µg/mL with HRV-4 [1] (setting [3]) is 54.5%; in the experiment on HRV-4 [1] (setting [4]) it was no more than 40%. Further, the “effect on HRV-induced IFN-β mRNA expression” value with IFN-β is given as “meaningfully inhibited”. For the same compound, in the experiment on HRV-4 [2], the “reduction of HRV-4 RNA replication level” value stood at 15.1 fold. Besides, the “effect on TNF mRNA expression” value in the experiment with TNF is recorded as “did not remarkably reduce”. Further, the “effect on HRV-induced IL-6 mRNA expression” value with IL-6 is “significantly reduced”. Moreover, the “effect on LDLR mRNA expression” value with LDLR is listed as “decreased”.
